Literature values, collected in US9687433B2, “Anhydrous depigmenting compositions comprising phenolic compounds” (Ecstasy LLC, priority 2015, dated 2017).

Conditions: degraded to hydroquinone

stability in aqueous solutions: thermolabile and acid sensitive
Structure (SMILES): Oc1ccc(OC2CCCCO2)cc1 (stereo not shown) [deoxyarbutin, 4-[(tetrahydro-2H-pyran-2-yl)oxy] phenol]
